From patent publication EP0236939A1, “Derivatives of 5-acyloxy-13-beta-alkyl milbemicyne against parasites in animals and plants” (CIBA-GEIGY AG, priority 1986, dated 1987)
Read-outs that look alike come from different tables or passages of the source.

Assays:
[1] = test system: Aphis craccivora; experiment: B-6 contact action on Aphis craccivora (sprayed pea seedlings); format: in vivo; conditions: 12,5 ppm, after 3 days; for mortality at 12.5 ppm: Aphis craccivora, 72 h, read-out: Abtötung
Description: Erbsenkeimlinge, die mit sämtlichen Entwicklungsstadien der Laus infiziert sind, werden mit einer aus einem Emulsionskonzentrat hergestellten Wirkstofflösung besprüht, die wahlweise 50 ppm, 25 ppm oder 12,5 ppm Wirkstoff enthält. Nach 3 Tagen wird auf mehr als 80 % tote bzw. abgefallene Blattläuse ausgewertet. Nur bei dieser Wirkungshöhe wird ein Präparat als wirksam eingestuft.

[2] = test system: Dermanyssus gallinae; experiment: B-9 miticidal action against Dermanyssus gallinae; format: in vivo; conditions: for Wirkung (Mortalität): 4320 min; for mortality at 100 ppm: Dermanyssus gallinae, 72 h, read-out: Wirkung (Mortalität)
Procedure: 2 bis 3 ml einer Testlösung (100, 10, 1 und 0,1 ppm Aktivsubstanz) werden in einen nach oben offenen Glasbehälter gegeben und ca. 200 Milben in unterschiedlichen Entwicklungsstadien in diesen Behälter eingesetzt. Der Glasbehälter wird mit einem Wattebausch verschlossen und 10 Minuten gleichmässig, bis zur vollständigen Benetzung der Milben geschüttelt. Danach wird der Behälter umgekehrt hingestellt, bis die überschüssige Testlösung von der Watte aufgesogen ist. Der Behälter wird erneut gekehrt und die behandelten […] zur Evaluierung der Wirksamkeit der Testsubstanzen drei Tage unter Laborbedingungen beobachtet, wobei die Mortalität als Massstab für Wirksamkeit herangezogen wird.

[3] = test system: L₁-Larven von Lucilia sericata; experiment: B-3 action against L1 larvae of Lucilia sericata (larval culture medium); format: in vivo; conditions: after 4 days; for Wirkung (Mortalitätsrate): 100 ppm; for mortality at 100 ppm: Lucilia sericata, 96 h, read-out: Wirkung (Mortalitätsrate)
Procedure: 1 ml einer wässrigen Suspension der zu prüfenden Aktivsubstanz werden so mit 3 ml eines speziellen Larvenzuchtmediums bei ca. 50°C vermischt, dass ein Homogenisat von wahlweise 250 ppm oder 100 ppm Wirkstoffgehalt entsteht. In jede Reagenzglas-Probe werden ca. 30 Lucilia-Larven (L₁) eingesetzt. Nach 4 Tagen wird die Mortalitätsrate bestimmt. Verbindungen der Formel I aus den Tabellen, wie z.B. die Verbindungen Nr. 2.8, 2.17, 2.31, 2.33, 2.35, 2.43, 2.1, 2.18 und 2.45 erzielten mit 100 ppm eine Wirkung von 100 %.

[4] = test system: Spodoptera littoralis; experiment: B-1 insecticidal stomach-poison action on Spodoptera littoralis (sprayed cotton plants); format: in vivo; conditions: Wirkstoffkonzentration 3 ppm; nach 24 Stunden; L1 larvae on sprayed cotton plants
Procedure: Eingetopfte Baumwollpflanzen im 5-Blatt-Stadium werden mit einer acetonisch/wässrigen Versuchslösung besprüht, die 3, 12,5 oder 50 ppm der zu prüfenden Verbindung enthält.
Nach dem Antrocknen des Belags werden die Pflanzen mit ca. 30 Larven (L₁-Stadium) von Spodoptera littoralis besetzt. Pro Versuchsverbindung und pro Test-Spezies verwendet man zwei Pflanzen. Der Versuch wird bei ca. 24°C und 60 % relativer Luftfeuchtigkeit durchgeführt. Auswertungen und Zwischenauswertungen auf moribunde Tiere, Wachstum und Larven und Frassschäden erfolgen nach 24 Stunden, 48 Stunden und 72 Stunden.

[5] = test system: Haemonchus concortus und Trichostrongylus colubriformis; experiment: B-5 test on sheep infected with nematodes (worm egg count in faeces); format: in vivo, Schafe; conditions: 0,2 mg/kg, single dose by stomach tube or intraruminal injection; compared with untreated infected sheep
Procedure: Der Wirkstoff wird als Suspension formuliert mit einer Magensonde oder durch Injektion in den Pansen eines Schafes gegeben, das mit Haemonchus concortus und Trychostrongylus colubriformis künstlich infiziert worden ist. Pro Dosis werden 1 bis 3 Tiere verwendet. Jedes Schaf wird nur einmal mit einer einzigen Dosis behandelt, und zwar wahlweise mit 0,5 mg oder 0,2 mg/kg Körpergewicht. Die Evaluierung erfolgt durch Vergleich der Anzahl der vor und nach Behandlung im Kot der Schafe ausgeschiedenen Wurmeier.
Gleichzeitig und gleichartig infizierte aber unbehandelte Schafe dienen als Kontrolle.

[6] = test system: Aedes aegypti; experiment: B-7 larvicidal action against Aedes aegypti; format: in vivo; conditions: 1,6 ppm; nach einem Tag
Procedure: Auf die Oberfläche von 150 ml Wasser, das sich in einem Behälter befindet, wird soviel einer 0,1 %igen acetonischen Lösung des Wirkstoffes pipettiert, dass Konzentrationen von wahlweise 10 ppm, 3,3 ppm und 1,6 ppm erhalten werden. Nach Verdunsten des Acetons wird der Behälter mit ca. 30-40 3 Tage alten Aedes-Larven beschickt. Nach 1, 2 und 5 Tagen wird die Mortalität geprüft.

[7] = test system: OP-sensible Tetranychus urticae; experiment: B-2 action against plant-damaging acarids, OP-sensitive Tetranychus urticae (sprayed bean plants); format: in vivo; conditions: Wirkstoffkonzentration 0,4 ppm; evaluated after seven days; all mite stages on bean plants
Procedure: Die Primärblätter von Bohnenpflanzen (Phaseolus vulgaris) werden 16 Stunden vor dem Versuch mit einem durch T. urticae infestierten, aus einer Massenzucht stammenden Blattstück belegt. Die so mit allen Milben-Stadien infestierten Pflanzen werden nach Entfernung des Blattstücks mit einer Versuchslösung bis zur Tropfnässe besprüht, die wahlweise 0,4 ppm oder 1,6 ppm der zu prüfenden Verbindung enthält. Die Temperatur in der Gewächshauskabine beträgt ca. 25°C.
Nach sieben Tagen wird unter dem Binokular auf Prozentsatz mobiler Stadien (Adulte und Nymphen) und auf vorhandene Eier ausgewertet.

[8] = test system: Boophilus microplus (Biarra-Stamm); experiment: B-4 acaricidal action against Boophilus microplus (injection into engorged female ticks, IR90); format: in vivo; conditions: injection of 1, 0,1 or 0,01 µg per tick; dose of the result not stated
Procedure: Auf einer PVC-Platte wird waagrecht ein Klebstreifen so befestigt, das darauf 10 mit Blut vollgesogene Zecken-Weibchen von Boophilus microplus (Biarra-Stamm) nebeneinander in einer Reihe mit dem Rücken aufgeklebt werden können. Jeder Zecke wird mit einer Injektionsnadel 1 µl einer Flüssigkeit injiziert, die eine 1:1-Mischung von Polyethylenglykol und Aceton darstellt und in der eine bestimmte Wirkstoffmenge von wahlweise 1, 0,1 oder 0,01 µg pro Zecke gelöst ist. Kontrolltiere erhalten eine wirkstofffreie Injektion. Nach der Behandlung werden die Tiere unter Normalbedingungen in einem Insektarium bei ca. 28°C und 80 % relativer Luftfeuchtigkeit gehalten, bis die Eiablage erfolgt und die Larven aus den Eiern der Kontrolltiere geschlüpft sind.
Die Aktivität einer geprüften Substanz wird mit der IR₉₀ bestimmt, d.h. es wird jene Wirkstoffdosis ermittelt, bei der noch nach 30 Tagen 9 von 10 Zeckenweibchen (= 90 %) Eier ablegen, die nicht schlupffähig sind.

[9] = test system: Meloidogyne incognita; experiment: B-8 soil-nematicidal action against Meloidogyne incognita (tomato plants, root-knot index); format: in vivo; conditions: 0,002 % Aktivsubstanz based on soil volume; after 4 weeks; untreated infected controls = 100 %
Procedure: Eier von Meloidogyne incognita werden in Sand eingemischt. Dieses Gemisch wird dann in 200 ml fassende Tontöpfe eingebracht (5000 Eier pro Topf). Am gleichen Tag wird pro Topf eine 3 Wochen alte Tomatenpflanze gepflanzt und der formulierte Wirkstoff mittels Druckapplikation in die Töpfe hineingegeben (0,002 % Aktivsubstanz bezogen auf das Bodenvolumen). Die eingetopften Pflanzen werden nun bei einer Temperatur von 26±1°C und einer relativen Luftfeuchtigkeit von 60 % in einem Gewächshaus aufgestellt. Nach Ablauf von 4 Wochen erfolgt eine Evaluierung durch Untersuchung der Pflanzen auf Wurzelgallbildung nach dem sogenannten Wurzelgall-Index ("Knot Index")

[10] = 100 ppm, observed for three days

| Compound | Nematodenbefall (Reduktion der Wurmeier im Kot) [5] | Abtötung sämtlicher Larven [6] | mortality at 100 ppm [3] [%] | further results |
| --- | --- | --- | --- | --- |
| 5-O-(1,2,4-Trizaol-1-yl)acetyl-13β-methyl-milbemycin A₄-Zink(II)-Komplex [Verbindung 2.35] | keinen Nematodenbefall |  |  | Abtötung [1]: 100%; Wirkung (Mortalität) [2, 10]: 100%; Wirkung (Mortalitätsrate) [3]: 100%; Abtötung [4]: vollständige Abtötung |
| 5-O-(3,4-Dihydro-2H-pyran-2-yl)carboxyacetyl-13β-methyl-milbemycin A₄ [Verbindung 2.31] | keinen Nematodenbefall | vollständige Abtötung |  | Wirkung (Mortalität) [2, 10]: 100%; Wirkung (Mortalitätsrate) [3]: 100% |
| CC[C@H]1O[C@]2(CC[C@@H]1C)C[C@@H]1C[C@@H](C/C=C(\C)[C@H](C)[C@@H](C)/C=C/C=C3\CO[C@@H]4[C@H](OC(C)=O)C(C)=C[C@@H](C(=O)O1)[C@]34O)O2 [Verbindung 2.1, 5-O-Acetyl-13β-methyl-milbemycin A₄] | keinen Nematodenbefall | vollständige Abtötung | 100 |  |
| CC[C@H]1O[C@]2(CC[C@@H]1C)C[C@@H]1C[C@@H](C/C=C(\C)[C@H](C)[C@@H](C)/C=C/C=C3\CO[C@@H]4[C@H](OC(=O)CCl)C(C)=C[C@@H](C(=O)O1)[C@]34O)O2 [Verbindung 2.8, 5-O-Chloracetyl-13β-methyl-milbemycin A₄] | keinen Nematodenbefall | vollständige Abtötung | 100 | Abtötung [7]: vollständige Abtötung; mortality at 12.5 ppm [1]: 100%; mortality at 100 ppm [2, 10]: 100%; Wirkung (IR₉₀) [8]: sehr gute Wirkung; Abtötung [4]: vollständige Abtötung |
| CC[C@H]1O[C@]2(CC[C@@H]1C)C[C@@H]1C[C@@H](C/C=C(\C)[C@H](C)[C@@H](C)/C=C/C=C3\CO[C@@H]4[C@H](OC(=O)COC(C)=O)C(C)=C[C@@H](C(=O)O1)[C@]34O)O2 [Verbindung 2.17, 5-O-Acetoxy-acetyl-13β-methyl-milbemycin A₄] | keinen Nematodenbefall | vollständige Abtötung | 100 | Abtötung [7]: vollständige Abtötung; mortality at 12.5 ppm [1]: 100%; mortality at 100 ppm [2, 10]: 100%; Restbefall (Wurzelgallbildung) [9]: 0-10% |
| CC[C@H]1O[C@]2(CC[C@@H]1C)C[C@@H]1C[C@@H](C/C=C(\C)[C@H](CC)[C@@H](C)/C=C/C=C3\CO[C@@H]4[C@H](OC(=O)COC(C)=O)C(C)=C[C@@H](C(=O)O1)[C@]34O)O2 [Verbindung 2.18, 5-O-Acetoxy-acetyl-13β-ethyl-milbemycin A₄] | keinen Nematodenbefall | vollständige Abtötung | 100 | Restbefall (Wurzelgallbildung) [9]: 0-10% |
| CC[C@H]1O[C@]2(CC[C@@H]1C)C[C@@H]1C[C@@H](C/C=C(\C)[C@H](C)[C@@H](C)/C=C/C=C3\CO[C@@H]4[C@H](OC(=O)COC)C(C)=C[C@@H](C(=O)O1)[C@]34O)O2 [Verbindung 2.43, 5-O-Methoxyacetyl-13β-methyl-milbemycin A₄] | keinen Nematodenbefall | vollständige Abtötung | 100 | Abtötung [7]: vollständige Abtötung; mortality at 12.5 ppm [1]: 100%; Abtötung [4]: vollständige Abtötung |
| CC[C@H]1O[C@]2(CC[C@@H]1C)C[C@@H]1C[C@@H](C/C=C(\C)[C@H](C)[C@@H](C)/C=C/C=C3\CO[C@@H]4[C@H](OC(=O)COC(=O)c5cccc(Cl)c5)C(C)=C[C@@H](C(=O)O1)[C@]34O)O2 [Verbindung 2.44, 5-O-(3-Chlorbenzoyloxy)-acetyl-13β-methyl-milbemycin A₄] | keinen Nematodenbefall |  |  |  |
| CC[C@H]1O[C@]2(CC[C@@H]1C)C[C@@H]1C[C@@H](C/C=C(\C)[C@H](CC)[C@@H](C)/C=C/C=C3\CO[C@@H]4[C@H](OC(=O)CCl)C(C)=C[C@@H](C(=O)O1)[C@]34O)O2 [Verbindung 2.45] | keinen Nematodenbefall |  | 100 |  |
| CC[C@H]1O[C@]2(CC[C@@H]1C)C[C@@H]1C[C@@H](C/C=C(\C)[C@H](C)[C@@H](C)/C=C/C=C3\CO[C@@H]4[C@H](OC(=O)COCOC)C(C)=C[C@@H](C(=O)O1)[C@]34O)O2 [Verbindung 2.48] |  |  |  | mortality at 100 ppm [2, 10]: 100% |
| CC[C@H]1O[C@]2(CC[C@@H]1C)C[C@@H]1C[C@@H](C/C=C(\C)[C@H](C)[C@@H](C)/C=C/C=C3\CO[C@@H]4[C@H](OC(=O)COc5ccccc5)C(C)=C[C@@H](C(=O)O1)[C@]34O)O2 [Verbindung 2.53] | keinen Nematodenbefall |  |  |  |
| CC[C@H]1O[C@]2(CC[C@@H]1C)C[C@@H]1C[C@@H](C/C=C(\C)[C@H](C)[C@@H](C)/C=C/C=C3\CO[C@@H]4[C@H](OC(=O)COS(=O)(=O)c5ccc(C)cc5)C(C)=C[C@@H](C(=O)O1)[C@]34O)O2 [Verbindung 2.55] |  |  |  | mortality at 100 ppm [2]: 100% |
